Some test systems named below: NCI-H460 lung; HCT-116 colon; LOX IMVI melanoma; U251 CNS; NCI-H23 lung; HOP-62 NSCLC; CCRF-CEM leukemia; SK-MEL-28 melanoma; NCI-H226 lung; BT-549 breast.
Holding throughout (experiment): inhibition of tumour cell growth, NCI panel, 48 h

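All cell lines were grown in 96-well plates and treated with compound for 48 hours. GI50: concentration for 50% inhibition of growth. At the TGI there is no net growth.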 Some results are limits rather than exact numbers.

On to `COc1ccccc1CNCCCN1C(=O)c2ccc3c4c(ccc(c24)C1=O)C(=O)N(CCCN)C3=O`, for which the GI50 in the experiment with NCI-H460 lung is 0.553 µM; in the experiment on HCT-116 colon, 0.349 µM; in the experiment with LOX IMVI melanoma, 0.685 µM; with U251 CNS, 1.77 µM; with NCI-H23 lung it was 0.94 µM; with HOP-62 NSCLC, 1.42 µM. Moreover, the GI50 in the experiment on CCRF-CEM leukemia is 0.441 µM; with SK-MEL-28 melanoma, 1.74 µM; in the experiment on NCI-H226 lung, 1.85 µM; with BT-549 breast it was 1.58 µM. The TGI was 2.16 µM in the experiment with NCI-H460 lung; 1.23 µM with HCT-116 colon; 2.87 µM in the experiment on LOX IMVI melanoma; 3.99 µM in the experiment on U251 CNS; 3.74 µM in the experiment with NCI-H23 lung; 2.95 µM with HOP-62 NSCLC. Besides, the TGI with CCRF-CEM leukemia is 2.76 µM; with SK-MEL-28 melanoma, 3.75 µM; in the experiment on NCI-H226 lung, 3.92 µM; with BT-549 breast, 2.99 µM.

As to `Cc1ccc(-c2csc(NC(=O)N3CCN(c4cc5c(cc4F)c(=O)c(C(=O)O)cn5C4CC4)CC3)n2)cc1`, the GI50 in the experiment with NCI-H460 lung was 0.355 µM; in the experiment with HCT-116 colon, 0.335 µM; in the experiment with LOX IMVI melanoma it was 0.362 µM; in the experiment with U251 CNS, 0.392 µM; in the experiment on NCI-H23 lung it was 0.391 µM; in the experiment on HOP-62 NSCLC it was 0.484 µM. Besides, the GI50 in the experiment on CCRF-CEM leukemia is 0.451 µM; in the experiment with SK-MEL-28 melanoma, 0.494 µM; in the experiment with NCI-H226 lung it was 1.44 µM; in the experiment with BT-549 breast, 0.345 µM. The TGI in the experiment with NCI-H460 lung was greater than 100 µM; in the experiment on HCT-116 colon, greater than 100 µM; with LOX IMVI melanoma, greater than 100 µM; in the experiment on U251 CNS it was 14.8 µM; in the experiment on NCI-H23 lung, greater than 100 µM; with HOP-62 NSCLC it was greater than 100 µM. Also, the TGI in the experiment with CCRF-CEM leukemia is greater than 100 µM; with SK-MEL-28 melanoma it was greater than 100 µM; in the experiment on NCI-H226 lung, 8.85 µM; in the experiment with BT-549 breast, 2.65 µM.

In the case of `Cc1ccc(-c2nc3nc(-c4ccccc4)nc(N4CCNCC4)c3o2)cc1`, the GI50 was 0.226 µM in the experiment on NCI-H460 lung; 0.185 µM with HCT-116 colon; 0.177 µM with LOX IMVI melanoma; 0.181 µM in the experiment on U251 CNS; 1.8 µM with NCI-H23 lung; 1.48 µM with HOP-62 NSCLC. Further, the GI50 with CCRF-CEM leukemia was 0.276 µM; in the experiment with SK-MEL-28 melanoma, 1.89 µM; in the experiment on NCI-H226 lung, 1.79 µM; with BT-549 breast, 1.69 µM. Moreover, the TGI with NCI-H460 lung was determined as 0.503 µM; in the experiment on HCT-116 colon, 0.337 µM; in the experiment with LOX IMVI melanoma, 0.323 µM; in the experiment on U251 CNS, 0.338 µM; with NCI-H23 lung it was 3.53 µM; in the experiment with HOP-62 NSCLC it was 2.98 µM. Also, the TGI in the experiment on CCRF-CEM leukemia came out at 0.729 µM; in the experiment with SK-MEL-28 melanoma, 3.43 µM; with NCI-H226 lung, 3.79 µM; in the experiment on BT-549 breast, 3.13 µM.

Take `NCCN.O=C([O-])CN1CCOCC1.[OH-].[Pt+4]`: the GI50 was 37.5 µM in the experiment with NCI-H460 lung; greater than 100 µM in the experiment with HCT-116 colon; greater than 100 µM with LOX IMVI melanoma; greater than 100 µM with U251 CNS; 60.9 µM in the experiment on NCI-H23 lung; greater than 100 µM with HOP-62 NSCLC. The GI50 in the experiment on CCRF-CEM leukemia, with SK-MEL-28 melanoma, with NCI-H226 lung and with BT-549 breast was greater than 100 µM in each case. The TGI in the experiment with NCI-H460 lung, with HCT-116 colon, in the experiment on LOX IMVI melanoma, with U251 CNS, in the experiment on NCI-H23 lung and in the experiment with HOP-62 NSCLC was greater than 100 µM in each case. In addition, the TGI with CCRF-CEM leukemia, with SK-MEL-28 melanoma, in the experiment on NCI-H226 lung and in the experiment on BT-549 breast was greater than 100 µM in each case.

Turning to `O=C1C(SCCO)=C(SCCO)C(=O)N1c1ccc(-c2ccccc2)cc1`, the GI50 is 9.75 µM in the experiment with NCI-H460 lung; 0.536 µM in the experiment on HCT-116 colon; 2.7 µM in the experiment on LOX IMVI melanoma; 5.21 µM in the experiment with U251 CNS; 4.38 µM in the experiment with NCI-H23 lung; 4.88 µM in the experiment with HOP-62 NSCLC. Besides, the GI50 in the experiment with CCRF-CEM leukemia was 2.34 µM; with SK-MEL-28 melanoma, 2.41 µM; in the experiment with NCI-H226 lung it was 23.1 µM; in the experiment on BT-549 breast it was 4.01 µM. Further, the TGI is 34.9 µM in the experiment with NCI-H460 lung; 1.24 µM with HCT-116 colon; 8.44 µM in the experiment with LOX IMVI melanoma; 15.7 µM in the experiment on U251 CNS; 13.3 µM in the experiment on NCI-H23 lung; 10.6 µM in the experiment with HOP-62 NSCLC. Further, the TGI is 6.87 µM with CCRF-CEM leukemia, 6.65 µM in the experiment on SK-MEL-28 melanoma, greater than 53.4 µM in the experiment with NCI-H226 lung and 8.38 µM in the experiment with BT-549 breast.

Turning to `O=c1cc(-c2cccnc2)[nH]c2cc3c(cc12)OCO3`, the TGI in the experiment on NCI-H460 lung is greater than 100 µM; with HCT-116 colon, greater than 100 µM; in the experiment with LOX IMVI melanoma, greater than 100 µM; with U251 CNS, 30.8 µM; in the experiment with NCI-H23 lung it was greater than 53.5 µM; with HOP-62 NSCLC it was 58.8 µM. Moreover, the TGI in the experiment on CCRF-CEM leukemia is greater than 100 µM; in the experiment with SK-MEL-28 melanoma, greater than 100 µM; in the experiment on NCI-H226 lung, greater than 89.6 µM; with BT-549 breast, greater than 100 µM.

As for `O=C1C(c2cnc3ccccc3n2)=C(O)c2ccccc21`, the TGI with NCI-H460 lung is greater than 100 µM; in the experiment with HCT-116 colon, greater than 100 µM; in the experiment on LOX IMVI melanoma, greater than 61.5 µM; in the experiment on U251 CNS, greater than 100 µM; in the experiment with NCI-H23 lung, greater than 100 µM; with HOP-62 NSCLC, greater than 100 µM. Further, the TGI with CCRF-CEM leukemia, with SK-MEL-28 melanoma, in the experiment on NCI-H226 lung and with BT-549 breast was greater than 100 µM throughout.

For `OCCn1cnc2c(SCc3ccccc3)ncnc21`, the TGI with NCI-H460 lung, with HCT-116 colon, in the experiment on LOX IMVI melanoma, in the experiment on U251 CNS, in the experiment with NCI-H23 lung and in the experiment on HOP-62 NSCLC was greater than 100 µM in each case. Moreover, the TGI with CCRF-CEM leukemia, with SK-MEL-28 melanoma, with NCI-H226 lung and in the experiment with BT-549 breast was greater than 100 µM in each case.

With `CN(C)CC1CCC2=C(C1=O)C(c1ccc(Cl)c(Cl)c1)C1=C(CCC(CN(C)C)C1=O)O2` (stereo not given), the GI50 with NCI-H460 lung is 10.3 µM; with HCT-116 colon, 10.4 µM; with LOX IMVI melanoma, 3.14 µM; with U251 CNS it was 11.7 µM; in the experiment with NCI-H23 lung, 3.6 µM; in the experiment on HOP-62 NSCLC it was 12.5 µM. Also, the GI50 is 3.33 µM with CCRF-CEM leukemia, 17.6 µM with SK-MEL-28 melanoma, 15.3 µM in the experiment with NCI-H226 lung and 14.2 µM in the experiment with BT-549 breast. Besides, the TGI in the experiment with NCI-H460 lung is 24.6 µM; with HCT-116 colon it was 23.4 µM; with LOX IMVI melanoma it was 15.2 µM; in the experiment on U251 CNS, 23.9 µM; in the experiment with NCI-H23 lung, 11.9 µM; in the experiment on HOP-62 NSCLC, 25.2 µM. The TGI was 26.3 µM with CCRF-CEM leukemia, 34.6 µM in the experiment with SK-MEL-28 melanoma, 31.2 µM in the experiment with NCI-H226 lung and 27.7 µM in the experiment with BT-549 breast.

Source of the values: PubChem BioAssay (NCI).
